From PubChem BioAssay AID1918942 (Molecular Pharmacology Branch, DTP, NCI, 2023)
pIC50: −log10 of the molar value.

System: 743489-274-T-PDC complex spheroid viability
Assay: Anticancer human tumor 743489-274-T-PDC patient-derived renal cell carcinoma cell line growth inhibition
Settings: for pIC50: curve of first compound; for viability, T/C: stronger effect = lower value
Method in brief: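 Complex spheroids of tumor cells with HUVEC and human MSCs, exposed to iadademstat combined with other agents. Each agent tested in half-log steps from near clinical Cmax (else 10 microM top), DMSO ≤0.25%.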

[1] = second compound 0.1 µM, first compound 0.00316 µM
[2] = second compound 0.1 µM, first compound 0.01 µM
[3] = second compound 0.1 µM, first compound 0.0316 µM
[4] = second compound 0.1 µM, first compound 0.1 µM
[5] = second compound 0.316 µM, first compound 0.00316 µM
[6] = second compound 0.316 µM, first compound 0.01 µM
[7] = second compound 0.316 µM, first compound 0.0316 µM
[8] = second compound 0.316 µM, first compound 0.1 µM
[9] = second compound 1 µM, first compound 0.00316 µM
[10] = second compound 1 µM, first compound 0.01 µM
[11] = second compound 1 µM, first compound 0.0316 µM
[12] = second compound 1 µM, first compound 0.1 µM
[13] = second compound 3.16 µM, first compound 0.00316 µM
[14] = second compound 3.16 µM, first compound 0.01 µM
[15] = second compound 3.16 µM, first compound 0.0316 µM
[16] = second compound 3.16 µM, first compound 0.1 µM
[17] = second compound 10 µM, first compound 0.00316 µM
[18] = second compound 10 µM, first compound 0.01 µM
[19] = second compound 10 µM, first compound 0.0316 µM
[20] = second compound 10 µM, first compound 0.1 µM
[21] = second compound 0.1 µM, first compound 0.00949 µM
[22] = second compound 0.1 µM, first compound 0.03 µM
[23] = second compound 0.1 µM, first compound 0.0949 µM
[24] = second compound 0.1 µM, first compound 0.3 µM
[25] = second compound 0.316 µM, first compound 0.00949 µM
[26] = second compound 0.316 µM, first compound 0.03 µM
[27] = second compound 0.316 µM, first compound 0.0949 µM
[28] = second compound 0.316 µM, first compound 0.3 µM
[29] = second compound 1 µM, first compound 0.00949 µM
[30] = second compound 1 µM, first compound 0.03 µM
[31] = second compound 1 µM, first compound 0.0949 µM
[32] = second compound 1 µM, first compound 0.3 µM
[33] = second compound 3.16 µM, first compound 0.00949 µM
[34] = second compound 3.16 µM, first compound 0.03 µM
[35] = second compound 3.16 µM, first compound 0.0949 µM
[36] = second compound 3.16 µM, first compound 0.3 µM
[37] = second compound 10 µM, first compound 0.00949 µM
[38] = second compound 10 µM, first compound 0.03 µM
[39] = second compound 10 µM, first compound 0.0949 µM
[40] = second compound 10 µM, first compound 0.3 µM
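Also: spheroids exposed to compounds for 7 days before readout.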
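For viability, T/C in this document: 100% = DMSO vehicle control wells.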

`CC[C@@]1(O)C(=O)OCc2c1cc1n(c2=O)Cc2cc3c(CN(C)C)c(O)ccc3nc2-1` + NC1CCC(NC2CC2c2ccccc2)CC1 was tested. Which pIC50 (second compound 0.1 µM) did it give?
The pIC50 was < 7.00.

And the pIC50 (second compound 0.316 µM)?
Its pIC50 is < 7.00.

What about the pIC50 (second compound 1 µM) of the same compound?
Its pIC50 is < 7.00.

What about the pIC50 (second compound 3.16 µM) of the same compound?
Its pIC50 is < 7.00.

And the pIC50 (second compound 10 µM)?
The pIC50 was < 7.00.

What about the viability, T/C (second compound 0.1 µM, first compound 0.000316 µM) of the same compound?
Its viability, T/C is 119%.

What about the viability, T/C (second compound 0.1 µM, first compound 0.001 µM) of the same compound?
Its viability, T/C is 103%.

And the viability, T/C [1]?
Its viability, T/C is 116%.

What about the viability, T/C [2] of the same compound?
The viability, T/C was 89.5%.

What about the viability, T/C [3] of the same compound?
The viability, T/C was 75.6%.

And the viability, T/C [4]?
The viability, T/C was 89.9%.

What about the viability, T/C (second compound 0.316 µM, first compound 0.000316 µM) of the same compound?
The viability, T/C was 107%.

And the viability, T/C (second compound 0.316 µM, first compound 0.001 µM)?
Its viability, T/C is 122%.

What about the viability, T/C [5] of the same compound?
The viability, T/C was 114%.

And the viability, T/C [6]?
Its viability, T/C is 93.3%.

What about the viability, T/C [7] of the same compound?
Its viability, T/C is 96.5%.

What about the viability, T/C [8] of the same compound?
Its viability, T/C is 81.1%.

What about the viability, T/C (second compound 1 µM, first compound 0.000316 µM) of the same compound?
Its viability, T/C is 120%.

What about the viability, T/C (second compound 1 µM, first compound 0.001 µM) of the same compound?
Its viability, T/C is 122%.

What about the viability, T/C [9] of the same compound?
The viability, T/C was 90.3%.

What about the viability, T/C [10] of the same compound?
The viability, T/C was 95.5%.

What about the viability, T/C [11] of the same compound?
Its viability, T/C is 77.8%.

What about the viability, T/C [12] of the same compound?
Its viability, T/C is 81.8%.

What about the viability, T/C (second compound 3.16 µM, first compound 0.000316 µM) of the same compound?
The viability, T/C was 120%.

What about the viability, T/C (second compound 3.16 µM, first compound 0.001 µM) of the same compound?
The viability, T/C was 110%.

And the viability, T/C [13]?
The viability, T/C was 115%.

What about the viability, T/C [14] of the same compound?
The viability, T/C was 78.2%.

What about the viability, T/C [15] of the same compound?
Its viability, T/C is 87.3%.

And the viability, T/C [16]?
The viability, T/C was 71.2%.

What about the viability, T/C (second compound 10 µM, first compound 0.000316 µM) of the same compound?
Its viability, T/C is 120%.

What about the viability, T/C (second compound 10 µM, first compound 0.001 µM) of the same compound?
Its viability, T/C is 127%.

What about the viability, T/C [17] of the same compound?
Its viability, T/C is 101%.

What about the viability, T/C [18] of the same compound?
Its viability, T/C is 104%.

And the viability, T/C [19]?
Its viability, T/C is 85.1%.

And the viability, T/C [20]?
Its viability, T/C is 78.9%.

Which results are given for `COc1cc(C2c3cc4c(cc3C(OC3OC5COC(C)OC5C(O)C3O)C3COC(=O)C23)OCO4)cc(OC)c1O` (stereo not given) + NC1CCC(NC2CC2c2ccccc2)CC1?
pIC50 (second compound 0.1 µM): < 5.52; pIC50 (second compound 0.316 µM): < 5.52; pIC50 (second compound 1 µM): < 5.52; pIC50 (second compound 3.16 µM): < 5.52; pIC50 (second compound 10 µM): < 5.52; viability, T/C [21]: 108%; viability, T/C [22]: 119%; viability, T/C [23]: 112%; viability, T/C [24]: 96.6%; viability, T/C (second compound 0.1 µM, first compound 0.949 µM): 106%; viability, T/C (second compound 0.1 µM, first compound 3 µM): 85.7%; viability, T/C [25]: 105%; viability, T/C [26]: 105%; viability, T/C [27]: 97.8%; viability, T/C [28]: 94.8%; viability, T/C (second compound 0.316 µM, first compound 0.949 µM): 91.7%; viability, T/C (second compound 0.316 µM, first compound 3 µM): 95.3%; viability, T/C [29]: 118%; viability, T/C [30]: 121%; viability, T/C [31]: 117%; viability, T/C [32]: 110%; viability, T/C (second compound 1 µM, first compound 0.949 µM): 93.2%; viability, T/C (second compound 1 µM, first compound 3 µM): 97.9%; viability, T/C [33]: 125%; viability, T/C [34]: 113%; viability, T/C [35]: 115%; viability, T/C [36]: 110%; viability, T/C (second compound 3.16 µM, first compound 0.949 µM): 99%; viability, T/C (second compound 3.16 µM, first compound 3 µM): 87.9%; viability, T/C [37]: 117%; viability, T/C [38]: 115%; viability, T/C [39]: 112%; viability, T/C [40]: 111%; viability, T/C (second compound 10 µM, first compound 0.949 µM): 98.6%; viability, T/C (second compound 10 µM, first compound 3 µM): 111%

What does the source list for `Nc1ccn(C2OC(CO)C(O)C2(F)F)c(=O)n1` (stereo not given) + NC1CCC(NC2CC2c2ccccc2)CC1?
pIC50 (second compound 0.1 µM): < 6.52; pIC50 (second compound 0.316 µM): < 6.52; pIC50 (second compound 1 µM): < 6.52; pIC50 (second compound 3.16 µM): < 6.52; pIC50 (second compound 10 µM): < 6.52; viability, T/C (second compound 0.1 µM, first compound 0.000949 µM): 77.8%; viability, T/C (second compound 0.1 µM, first compound 0.003 µM): 72.3%; viability, T/C [21]: 71.5%; viability, T/C [22]: 81.7%; viability, T/C [23]: 68.9%; viability, T/C [24]: 78.4%; viability, T/C (second compound 0.316 µM, first compound 0.000949 µM): 86.3%; viability, T/C (second compound 0.316 µM, first compound 0.003 µM): 80%; viability, T/C [25]: 74.6%; viability, T/C [26]: 79.2%; viability, T/C [27]: 73.2%; viability, T/C [28]: 69.6%; viability, T/C (second compound 1 µM, first compound 0.000949 µM): 68.5%; viability, T/C (second compound 1 µM, first compound 0.003 µM): 71.7%; viability, T/C [29]: 74.6%; viability, T/C [30]: 84.9%; viability, T/C [31]: 76.5%; viability, T/C [32]: 79.1%; viability, T/C (second compound 3.16 µM, first compound 0.000949 µM): 81.5%; viability, T/C (second compound 3.16 µM, first compound 0.003 µM): 80%; viability, T/C [33]: 85.2%; viability, T/C [34]: 78.8%; viability, T/C [35]: 76.4%; viability, T/C [36]: 68.8%; viability, T/C (second compound 10 µM, first compound 0.000949 µM): 91.7%; viability, T/C (second compound 10 µM, first compound 0.003 µM): 78.8%; viability, T/C [37]: 84.8%; viability, T/C [38]: 92.7%; viability, T/C [39]: 74.3%; viability, T/C [40]: 80.5%

`Nc1ncn(C2CC(O)C(CO)O2)c(=O)n1` (stereo not given) + NC1CCC(NC2CC2c2ccccc2)CC1 was tested. Which pIC50 (second compound 0.1 µM) did it give?
Its pIC50 is < 6.00.

And the pIC50 (second compound 0.316 µM)?
Its pIC50 is < 6.00.

What about the pIC50 (second compound 1 µM) of the same compound?
Its pIC50 is < 6.00.

And the pIC50 (second compound 3.16 µM)?
The pIC50 was < 6.00.

What about the pIC50 (second compound 10 µM) of the same compound?
Its pIC50 is < 6.00.

What about the viability, T/C [1] of the same compound?
Its viability, T/C is 107%.

And the viability, T/C [2]?
The viability, T/C was 113%.

And the viability, T/C [3]?
The viability, T/C was 110%.

And the viability, T/C [4]?
Its viability, T/C is 109%.

And the viability, T/C (second compound 0.1 µM, first compound 0.316 µM)?
The viability, T/C was 105%.

And the viability, T/C (second compound 0.1 µM, first compound 1 µM)?
The viability, T/C was 105%.

And the viability, T/C [5]?
Its viability, T/C is 122%.

And the viability, T/C [6]?
The viability, T/C was 119%.

What about the viability, T/C [7] of the same compound?
The viability, T/C was 107%.

And the viability, T/C [8]?
The viability, T/C was 107%.

And the viability, T/C (second compound 0.316 µM, first compound 0.316 µM)?
Its viability, T/C is 98%.

And the viability, T/C (second compound 0.316 µM, first compound 1 µM)?
Its viability, T/C is 98.4%.

And the viability, T/C [9]?
The viability, T/C was 107%.

And the viability, T/C [10]?
Its viability, T/C is 113%.

What about the viability, T/C [11] of the same compound?
Its viability, T/C is 114%.

What about the viability, T/C [12] of the same compound?
The viability, T/C was 92%.

And the viability, T/C (second compound 1 µM, first compound 0.316 µM)?
Its viability, T/C is 105%.

And the viability, T/C (second compound 1 µM, first compound 1 µM)?
Its viability, T/C is 105%.

What about the viability, T/C [13] of the same compound?
The viability, T/C was 127%.

What about the viability, T/C [14] of the same compound?
Its viability, T/C is 122%.

And the viability, T/C [15]?
The viability, T/C was 108%.

And the viability, T/C [16]?
The viability, T/C was 95.9%.

And the viability, T/C (second compound 3.16 µM, first compound 0.316 µM)?
Its viability, T/C is 94%.

What about the viability, T/C (second compound 3.16 µM, first compound 1 µM) of the same compound?
Its viability, T/C is 97.8%.

What about the viability, T/C [17] of the same compound?
Its viability, T/C is 104%.

What about the viability, T/C [18] of the same compound?
The viability, T/C was 122%.

And the viability, T/C [19]?
The viability, T/C was 131%.

And the viability, T/C [20]?
Its viability, T/C is 97.2%.

And the viability, T/C (second compound 10 µM, first compound 0.316 µM)?
The viability, T/C was 103%.

And the viability, T/C (second compound 10 µM, first compound 1 µM)?
The viability, T/C was 97.3%.
